Data reported in patent publication US8859781B2, “No-releasing nonoate(nitrogen-bound)sulfonamide-linked-coxib anti-cancer agents” (Euclises Pharmaceuticals, Inc., priority 2012, dated 2014).

System: PGE2 levels in exudate (carrageenan-challenged air pouch)
Test: Air pouch assay of acute inflammation measuring exudate volume and PGE2 levels in exudate in rats
Format: in vivo, Sprague-Dawley rats
Settings: rat air pouch; for PGE2 (pg/mL), mean in exudate / Volume (mL), mean collected exudate volume: 0.01 mmol/kg oral 2 h before 1% carrageenan, exudate 4 h after carrageenan, group mean, 5 rats/group; for PGE2 (pg/mL), mean in exudate: ELISA; for reduction in collected exudate volume / reduction in exudate PGE2 release / effect on the carrageenan-induced increase in PGE2 release / effect on the carrageenan-induced increase in exudate volume: 0.01 mmol/kg oral pretreatment; for reduction in collected exudate volume / reduction in exudate PGE2 release: vs vehicle; for effect on the carrageenan-induced increase in PGE2 release / effect on the carrageenan-induced increase in exudate volume: result in words
Experimental: Compound Testing in the Air Pouch Assay of Acute Inflammation Measuring PGE2 Levels in Exudate in Rats
Animals: Sprague-Dawley rats (Charles River Laboratories., R #3234, PO #738990, male, 160-180 g) were received, individually examined, and housed in cages of five rats each. The rats were ear notched for identification purposes.
Compounds and Dosing Solutions: The vehicle was prepared by dissolving 40 g (2-hydroxypropyl)-β-cyclodextrin (HP-β-CD, Sigma, Cat. 332593, lot MKBJ5858V) in 160 mL sterile saline for injection, USP (Hospira, lot 26-801-FW) making a 25% solution which was filter sterilized (0.2 μm, Nalgene, Cat. 151-4020, lot 1095610). A 1% carrageenan solution was prepared by dissolving […] (Fluka, Cat. 22049, lot 1318338) in hot 60 mL sterile saline for injection, USP. This solution was stored at 4-8° C. Test compounds were dissolved in DMSO (Fisher Scientific, Cat. D128-500, lot 874999) to make 75 mM stocks. 0.25 mL of compound DMSO stocks were mixed with 12.5 mL of HP-13-CD solution at 50° C. (maximum DMSO concentration was 2% of the final volume of vehicle,). Final concentration of all test compounds was 1.5 mM and compounds were dosed within 2 hours of preparation at 0.01 mmol/kg (12 […] of test compound per rat).
Day 0—Air Pouch Initiation: The rats were anesthetized in a biological cabinet, the nape of the neck was cleansed with 70% isopropanol (Butler Schein Animal Health, Cat. 002498, lot 29EMS07104547) followed by 1% povidone-iodine solution (Ricca Chemical Co., Cat. 3955-16, lot 2205469). Twenty mL of sterile (0.22 μm, Millipore, Cat. SLGP033RS, lot R2KA55925, exp August 2015) air was injected subcutaneously (SC) using a 23G×1½ inch needle fixed to a 20 mL syringe. The rats were returned to routine housing. No adverse reactions were observed.
Day 3—Air Pouch Maintenance: The rats were anesthetized in a biological cabinet, the nape of the neck was cleansed with 70% isopropanol followed by 1% povidone-iodine solution. Ten mL of sterile air was injected SC using a 23G×1½ inch needle fixed to a 20 mL syringe. The rats were returned to routine housing in clean cages. No adverse reactions were observed.
Day 6—Compound Administration and Carrageenan Insult: At commencement of the study, each rat was weighed and sorted into treatment groups of 5 rats/group based upon average weight. Each rat was dosed orally via gavage at 6.809 mL/kg (1.6 mL/235 g) with their respective test material/vehicle. Two hours after test material/vehicle administration, the rats were injected with 1.0 mL of the room temperature 1% carrageenan saline solution into the air pouch. Four hours after carrageenan injection, the rats were anesthetized and 5 mL of the exudate buffer was injected into the air pouch. The pouch was gently massaged, the exudate immediately removed, and exudate volume recorded. The exudate was collected in a serum separator tube on an ice bath. The exudates were centrifuged (refrigerated) and an aliquot of the supernatant was stored in a labeled Eppendorf tube at −80° C.
Termination of Study: Animals were euthanized via CO2 asphyxiation at the completion of the in-life portion of this study and carcasses were disposed of according to standard protocols.
Data Analysis: The exudate samples were thawed to room temperature and assayed by ELISA for PGE2 (R&D Systems, Cat. KGE004B, lot 307711). Statistical significance of treatments on mean exudate volumes are determined by comparison of means for treatment groups with vehicle group. Mean cytokine concentrations and standard deviations are determined for each group. Statistical significance of treatments on cytokine concentrations are determined for each compound group compared to vehicle group. Statistical significance (p-value) was calculated vs control groups by Student's t-Test.

Cc1ccc(-c2cc(C(F)(F)F)nn2-c2ccc(S(=O)(=O)NC(=O)CN(C)/[N+]([O-])=N/OCOC(=O)C(C)(C)C)cc2)cc1 [Compound 602, (Z)-3-Methyl-3-(2-oxo-2-(4-(5-(p-tolyl)-3-(trifluoromethyl)-1H-pyrazol-1-yl)phenylsulfonamido)ethyl)-1-((pivaloyloxy)methoxy)triaz-1-ene 2-oxide]
PGE2 (pg/mL), mean in exudate: 1915.2 pg/mL
Volume (mL), mean collected exudate volume: 4.5 mL
reduction in collected exudate volume: 20%
reduction in exudate PGE2 release: 56%

Cc1ccc(-c2cc(C(F)(F)F)nn2-c2ccc(S(N)(=O)=O)cc2)cc1 [Celecoxib, 4-(5-(p-Tolyl)-3-(trifluoromethyl)-1H-pyrazol-1-yl)benzenesulfonamide, reference compound]
PGE2 (pg/mL), mean in exudate: 907.1 pg/mL
Volume (mL), mean collected exudate volume: 4.6 mL
reduction in collected exudate volume: 19%
reduction in exudate PGE2 release: 80%

CN(CCO)/[N+]([O-])=N/OCOC(=O)C(C)(C)C [Compound N402, (Z)-3-(2-Hydroxyethyl)-3-methyl-1-((pivaloyloxy)methoxy)triaz-1-ene 2-oxide]
PGE2 (pg/mL), mean in exudate: 3782.4 pg/mL
Volume (mL), mean collected exudate volume: 5.4 mL
effect on the carrageenan-induced increase in PGE2 release: did not show any effect
effect on the carrageenan-induced increase in exudate volume: did not show any effect

Cc1ccc(-c2cc(C(F)(F)F)nn2-c2ccc(S(=O)(=O)NC(=O)OCCN(C)/[N+]([O-])=N/OCOC(=O)C(C)(C)C)cc2)cc1 [Compound 202, (Z)-5,12,12-Trimethyl-1,11-dioxo-1-(4-(5-(p-tolyl)-3-(trifluoromethyl)-1H-pyrazol-1-yl)phenylsulfonamido)-2,8,10-trioxa-5,6,7-triazatridec-6-ene 6-oxide]
PGE2 (pg/mL), mean in exudate: 4959.1 pg/mL
Volume (mL), mean collected exudate volume: 5.6 mL
effect on the carrageenan-induced increase in PGE2 release: did not show any effect
effect on the carrageenan-induced increase in exudate volume: did not show any effect
